These results are taken from the supplement of paper PMC12317010.

This data set is described as follows: collision cross section in nitrogen (drift tube, single-field); higher = larger gas-phase ion size.
Where [1] appears, read: ion type: [M+H], ion source: APCI, ion mode: Positive.
[2] abbreviates: ion type: [M+H], ion source: ESI, ion mode: Positive.
Where [3] appears, read: ion type: [M+Na], ion source: ESI, ion mode: Positive.
Where [4] appears, read: ion type: [M-H], ion source: ESI, ion mode: Negative.
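Also: chemical standards at 10 µM analysed by drift tube IMS-QTOF MS in about 3.95 torr nitrogen, mean of duplicate injections differing ≤1%, mass error below 10 ppm.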

Regarding `COc1cc(C=O)cc2c1[C@H](COC(N)=O)[C@]1(OC(C)=O)ON2C[C@H]2[C@@H]1N2C(C)=O`, the “collision cross section in nitrogen” value is, setting by setting: under setting [1], 191.3 Å²; under setting [2], 192.1 Å²; under setting [3], 190.5 Å².
On the same counts, the results for `COc1cc(C(C)C)c2c(c1)S(=O)(=O)N(COc1cc(=O)n3cccc(OCCN4CCCCC4)c3n1)C2=O` are 228 Å², 226.9 Å² and 230.1 Å².
On to `COc1ccc(C(=O)Nc2nc3ccccc3c(NCc3ccccc3)c2C#N)cc1`, for which the “collision cross section in nitrogen” value stood at 207 Å² under setting [1], 206.7 Å² under setting [2], 206.2 Å² under setting [3] and 210.8 Å² under setting [4].
For `COCCOc1cc2cc(C(=O)NC3CCN(C(C)C)CC3)n(CC(=O)Nc3ccc(Cl)cn3)c2cn1`, in that order: 234.1 Å², 235.6 Å², 239.2 Å² and 235.2 Å².
With `COc1cc(-c2nc(NC(=O)c3cc4cc(C)cc(C)c4n3CC(=O)O)sc2CCC2CCCCC2)c(OC)cc1Cl`, the “collision cross section in nitrogen” value by setting is: under setting [1], 258.5 Å²; under setting [2], 258.2 Å²; under setting [3], 259.5 Å²; under setting [4], 258.7 Å².
Regarding `COc1ccc2cc(S(=O)(=O)N[C@H](CC(=O)N[C@H](Cc3ccc(CN4[C@H](C)CCC[C@@H]4C)cc3)C(=O)N(C)C(C)C)c3ccc4c(c3)OCO4)ccc2c1`, the “collision cross section in nitrogen” value runs as follows: under setting [1], 266.1 Å²; under setting [2], 267 Å²; under setting [3], 277.4 Å²; under setting [4], 271.5 Å².
Regarding `COc1cccc(-c2ccc(/C=C\CN3CCCCCC3)cc2Cl)c1`, the “collision cross section in nitrogen” value by setting is: under setting [1], 185.2 Å²; under setting [2], 185.6 Å²; under setting [3], 196.9 Å².
Regarding `CSc1ccc(Oc2ccc(S(N)(=O)=O)cc2CN(C)C)cc1C`, the “collision cross section in nitrogen” value was 196.5 Å² under setting [1], 195.7 Å² under setting [2], 208.1 Å² under setting [3] and 196.9 Å² under setting [4].
For `Cc1cc(CCN2CCN(c3nsc4ccccc34)CC2)cc2c1NC(=O)CC2(C)C`, in that order: 202.2 Å², 202.4 Å², 205.3 Å² and 209.3 Å².
On to `Cc1cc2c(cc1C(F)(F)F)N(C(=O)Nc1ccc(Oc3cccnc3C)nc1)CC2`, for which the “collision cross section in nitrogen” value under setting [1] came out at 214.2 Å², the “collision cross section in nitrogen” value under setting [2] stood at 213.8 Å², the “collision cross section in nitrogen” value under setting [3] turned out to be 211 Å² and the “collision cross section in nitrogen” value under setting [4] worked out at 209.1 Å².
For the molecule `Cc1ccc(Nc2ccc(Nc3ccc(C)cc3S(=O)(=O)O)c3c2C(=O)c2ccccc2C3=O)c(S(=O)(=O)O)c1`, the “collision cross section in nitrogen” value reads like this: under setting [2], 235.2 Å²; under setting [4], 227.8 Å².
For `Cc1nc(-c2ccc3c(c2)CCN(CCC2CCC(NC(=O)/C=C/c4ccc(F)cc4)CC2)CC3)no1` (centres undefined), the “collision cross section in nitrogen” value is, setting by setting: under setting [1], 225.5 Å²; under setting [2], 224.8 Å²; under setting [3], 236.2 Å²; under setting [4], 226.8 Å².
In the case of `N#CC(CCc1ccc(Cl)cc1)(Cn1cncn1)c1ccccc1` (centres undefined), the “collision cross section in nitrogen” value runs as follows: under setting [1], 183.9 Å²; under setting [2], 183.1 Å².
Regarding `Cn1c(=O)cc(Oc2ccc(F)cc2F)c2cnc(NCC(C)(C)O)nc21`, the “collision cross section in nitrogen” value is, setting by setting: under setting [1], 192.8 Å²; under setting [2], 192.4 Å²; under setting [3], 205.6 Å²; under setting [4], 193.4 Å².
For `O=C(N[C@@H](c1ccccc1)[C@@H]1CCCCN1)c1cccc(C(F)(F)F)c1Cl`, in that order: 190.3 Å², 190.4 Å², 200.2 Å² and 191.6 Å².
Take `N#C[C@@H]1CC(F)(F)CN1C(=O)CNC1CC2CCC(C1)N2c1ncccn1` (some centres undefined): the “collision cross section in nitrogen” value under setting [1] was determined as 176.9 Å², the “collision cross section in nitrogen” value under setting [2] is given as 176.9 Å² and the “collision cross section in nitrogen” value under setting [3] was 182.7 Å².
`O=C(Nc1ccc2[nH]ccc2c1)c1cc2cc(F)ccc2n1Cc1cccc(F)c1`: the “collision cross section in nitrogen” value was 195.9 Å² under setting [1], 195.7 Å² under setting [2], 202.1 Å² under setting [3] and 193.8 Å² under setting [4].
As for `N#Cc1ccc(C2CCCc3cncn32)cc1` (centres undefined), the “collision cross section in nitrogen” value reads like this: under setting [1], 157 Å²; under setting [2], 157.2 Å².
`N=C(N)NC(=N)NCCc1ccccc1`: the “collision cross section in nitrogen” value was 145.7 Å² under setting [1], 146.3 Å² under setting [2] and 148.3 Å² under setting [3].
Take `NC(=O)c1nc(-c2cccc(-c3cc(F)ccc3OCC(F)(F)C(F)(F)F)c2)n[nH]1`: the “collision cross section in nitrogen” value stood at 189.4 Å² under setting [1], 189.1 Å² under setting [2], 190.9 Å² under setting [3] and 195.5 Å² under setting [4].
As for `Nc1cc2c3c(c1)C(c1ccccc1)=N[C@@H](NC(=O)c1cccnc1)C(=O)N3CC2`, the “collision cross section in nitrogen” value reads like this: under setting [1], 201.2 Å²; under setting [2], 200.1 Å²; under setting [3], 209.2 Å².
In the case of `O=C(N[C@H]1CN2CCC1CC2)c1ccc2c(c1)OCCO2`, the “collision cross section in nitrogen” value came out at 175.9 Å² under setting [1], 175.7 Å² under setting [2] and 177.1 Å² under setting [4].
Regarding `O=C1c2ccccc2C(=O)N1CCc1noc(-c2ccc(CN3CCCCCC3)s2)n1`, the “collision cross section in nitrogen” value reads like this: under setting [1], 214.3 Å²; under setting [2], 213.7 Å²; under setting [3], 213.7 Å².
Turning to `O=S(=O)(c1ccc2c(c1)CCCN2)N1CCC[C@@H]2CCCC[C@H]21`, the “collision cross section in nitrogen” value is, setting by setting: under setting [1], 179.5 Å²; under setting [2], 178.5 Å²; under setting [3], 195.9 Å²; under setting [4], 179.6 Å².
In the case of `O=C(O)c1cccc(N(Cc2cccnc2)c2ccc(OC(F)F)c(OC(F)F)c2)c1`, the “collision cross section in nitrogen” value by setting is: under setting [1], 201.3 Å²; under setting [2], 200.4 Å²; under setting [3], 205.9 Å²; under setting [4], 202.6 Å².
Take `OCC(CO)n1cnc(-c2ccc(F)cc2)c1-c1ccnc(Oc2ccccc2)n1`: the “collision cross section in nitrogen” value under setting [1] turned out to be 197.6 Å², the “collision cross section in nitrogen” value under setting [2] is given as 197.1 Å² and the “collision cross section in nitrogen” value under setting [3] was 191 Å².
